Patent US8986652B2, “Method of preparing [123I]iodooctyl fenbufen amide and application thereof” (National Tsing Hua University, priority 2012, dated 2015)
Like-named read-outs stand apart in the source and are kept apart here.

Tests used:
NO = conditions: antioxidant (e.g. NO) assay; cited from earlier work
rat liver tumor lesion = conditions: cited from earlier work
COX-1 [1] = molecular target: T1, COX-1 (Ovis aries, UniProt P05979); test: Colorimetric COX inhibitor screening assay (competitive inhibition of substrate transfer, CIST), COX-1; assay type: biochemical, ovine
T1 construct: purchased Cayman Chemical Ltd 760111
T1 sequence (P05979 25-600): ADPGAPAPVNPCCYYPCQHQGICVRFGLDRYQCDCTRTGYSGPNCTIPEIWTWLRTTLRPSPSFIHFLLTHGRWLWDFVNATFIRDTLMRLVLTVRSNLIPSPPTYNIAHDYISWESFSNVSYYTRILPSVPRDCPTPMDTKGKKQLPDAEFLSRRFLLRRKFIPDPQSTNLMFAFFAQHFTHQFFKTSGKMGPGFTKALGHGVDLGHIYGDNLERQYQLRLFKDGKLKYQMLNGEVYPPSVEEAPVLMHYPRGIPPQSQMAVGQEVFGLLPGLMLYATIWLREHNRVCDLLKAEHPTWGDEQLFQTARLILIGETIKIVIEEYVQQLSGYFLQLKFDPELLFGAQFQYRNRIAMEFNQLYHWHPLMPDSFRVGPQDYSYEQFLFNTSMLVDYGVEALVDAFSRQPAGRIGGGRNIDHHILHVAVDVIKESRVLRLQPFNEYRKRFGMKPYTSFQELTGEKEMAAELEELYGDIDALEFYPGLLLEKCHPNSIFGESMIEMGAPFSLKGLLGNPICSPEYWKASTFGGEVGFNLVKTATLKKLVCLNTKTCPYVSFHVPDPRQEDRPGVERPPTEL

COX-2 [2] = molecular target: T2, COX-2 (Ovis aries, UniProt P79208); test: Colorimetric COX inhibitor screening assay (competitive inhibition of substrate transfer, CIST), COX-2; assay type: biochemical; conditions: colorimetric COX (ovine) kit; read-out: IC50 value COX-2, this assay
T2 construct: purchased Cayman Chemical Ltd 760111
T2 sequence (P79208 17-603): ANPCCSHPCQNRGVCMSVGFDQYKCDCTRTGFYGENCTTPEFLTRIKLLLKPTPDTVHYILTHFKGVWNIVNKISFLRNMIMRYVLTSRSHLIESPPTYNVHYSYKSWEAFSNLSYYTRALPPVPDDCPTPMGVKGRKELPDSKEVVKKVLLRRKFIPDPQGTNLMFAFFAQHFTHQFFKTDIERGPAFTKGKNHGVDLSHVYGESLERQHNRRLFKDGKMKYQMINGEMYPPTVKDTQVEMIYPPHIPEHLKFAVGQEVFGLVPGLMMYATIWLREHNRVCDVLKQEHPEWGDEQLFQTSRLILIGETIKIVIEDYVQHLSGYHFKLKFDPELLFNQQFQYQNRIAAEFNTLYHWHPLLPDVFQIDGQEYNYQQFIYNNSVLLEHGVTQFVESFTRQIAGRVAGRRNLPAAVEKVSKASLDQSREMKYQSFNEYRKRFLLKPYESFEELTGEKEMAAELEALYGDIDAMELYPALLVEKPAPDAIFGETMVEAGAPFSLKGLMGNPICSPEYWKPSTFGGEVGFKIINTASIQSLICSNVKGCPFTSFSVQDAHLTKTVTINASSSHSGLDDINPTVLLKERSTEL

COX-1 [3] = molecular target: T1, COX-1; test: Radioligand binding assay by gel filtration HPLC, COX-1; parameters: species or system ovine; conditions: for Binding yield (bound conjugate, accumulated radioactivity fraction) with COX-1: 25° C., 15 min incubation, peak at 5 min / (5 min + 13.6 min)
Procedure: (§1) The compound of formula 1 was purified by a set of HPLC consisting of the components of a Waters 510 pump, a linear UVIS detector (254 nm) in series with a Berthhold γ-flow detector, on a ZORBAX SIL column (250 mm×9.4 mm, 5 μm) at 3 mL/min with MeOH/CHCl3=1/99 as the mobile phase. Quality analysis of The compound of formula 1 was performed on the same HPLC setup as described above. The settings for radioactive ligand binding assay included a gel filtration column of TSKgel G3000PWx1 7.5×300 (mm) with a particle size of 10 μm which was purchased from Tosoh Bioscience LLC. The corresponding eluting conditions including PBS buffer and flow rate of 1 mL/min were employed throughout the experiment. The identity of The compound of formula 1 was confirmed with the compound of formula 2 on HPLC chromatogram after coinjection. The peak area of the UV absorbance at 254 nm that should correspond to the compound of formula 2 was calculated by interpolating to the standard curve relating mass to UV absorbance. Only a specific activity below 36 GBq/μmol can be measured accurately. Radioactive measurements were performed by a Capintec R15C dose calibrator.
(§2) The binding experiment was carried out in an eppendorf (0.2 mL) and stood for 10 min for equilibrium. An aliquot (10 μL) was drawn from the commercial stock solution (200 μL). Additional 30 μL of tris buffer (0.1 M, pH=8.0) was added. The solution (40 μL) of COX-1 or COX-2 each was added into a tris buffer (50 μL) together with the addition of a solution of the radiotracer the compound of formula 1 in EtOH with concentration ranging from 66 μCi/10 μL to 70 μCi/10 μL. The whole mixture (100 μL) was incubated at 25° C. for 15 min followed by submission to purification using HPLC. PBS buffer (0.1 M, pH=7.3) was employed as the eluent and the flow rate was set to be 1 mL/min.
(§3) The assay was based on that the retention time of the bound complex between radiolabeled ligand and enzyme was different from that of the unbound ligand in HPLC. […]

COX-2 [4] = molecular target: T2, COX-2; test: Radioligand binding assay by gel filtration HPLC, COX-2; parameters: species or system ovine; conditions: for Binding yield (bound conjugate, accumulated radioactivity fraction) with COX-2: 25° C., 15 min incubation, peak at 5 min / (5 min + 13.6 min)
Procedure: as §1, §2, §3

[5] = test system: thioacetamide-induced cholangiocarcinoma (CCA) rat; test: SPECT/CT imaging in normal rat and thioacetamide-induced cholangiocarcinoma (CCA) rat; assay type: in vivo; conditions: tail vein
Procedure: All in vivo experiments were performed in compliance with the Taiwan National Health and Medical Research Council (NHMRC) Code of Practice for the care and use of animals for scientific purposes. Male-, Sprague-Dawley (SD) rats ([…]) were obtained from the Animal Research Center (Chang-Gung Memorial Hospital, Taiwan). Rats were housed under constant environmental conditions and were allowed free access to food and water throughout the experimental period. In vivo studies were performed in a thioacetamide-induced cholangiocarcinoma (CCA) rat (37th week post administration) along with a normal rat as a control.
The rats were anaesthetized via inhalant isoflurane (Forthane, Abott) in 200 mL/min oxygen during the imaging study. […]
The compound of formula 1 (0.76 mCi/1 mL) was administered by the CCA rat via tail vein injection to obtain a summation of one-hour Single Photon Emission Computer Tomography (SPECT) imaging data (FIG. 4(A)). The normal rat was injected with the residual radioactivity of the compound of formula 1 (1.39 mCi/1 mL) (FIG. 4 (B)). All in vivo experiments were performed in compliance with the NHMRC Taiwan Code of Practice for the care and use of animals for scientific purposes, and the raw data from the image further analyzed by Preclinical Multi-Modality Data Analysis software (PMOD Technologies Ltd, Zurich, Switzerland).

COX-1 [6] = molecular target: COX-1 (Homo sapiens, UniProt P23219); conditions: read-out: IC50 value COX-1, lit. data; literature data; cited from earlier work
COX-1 (Homo sapiens, UniProt P23219), sequence (P23219 24-599): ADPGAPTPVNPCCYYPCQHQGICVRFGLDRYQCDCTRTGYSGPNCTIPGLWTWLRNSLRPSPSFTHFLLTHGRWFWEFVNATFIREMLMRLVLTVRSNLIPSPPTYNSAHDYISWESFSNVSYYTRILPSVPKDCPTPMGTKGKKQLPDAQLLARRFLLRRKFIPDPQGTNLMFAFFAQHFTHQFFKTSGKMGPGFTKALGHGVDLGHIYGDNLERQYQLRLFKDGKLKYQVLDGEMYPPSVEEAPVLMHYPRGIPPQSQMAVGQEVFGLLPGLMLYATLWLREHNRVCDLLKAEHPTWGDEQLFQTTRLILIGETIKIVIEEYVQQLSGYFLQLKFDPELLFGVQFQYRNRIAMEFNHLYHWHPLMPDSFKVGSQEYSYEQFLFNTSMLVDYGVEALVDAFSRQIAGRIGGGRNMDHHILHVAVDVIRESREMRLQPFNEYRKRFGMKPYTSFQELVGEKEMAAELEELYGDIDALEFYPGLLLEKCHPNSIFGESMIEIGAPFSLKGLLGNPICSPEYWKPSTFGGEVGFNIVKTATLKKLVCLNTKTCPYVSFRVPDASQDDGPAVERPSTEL

COX-2 [7] = molecular target: T3, COX-2 (Homo sapiens, UniProt P35354); conditions: read-out: IC50 value COX-2, lit. data; literature data; cited from earlier work
T3 sequence (P35354 18-604): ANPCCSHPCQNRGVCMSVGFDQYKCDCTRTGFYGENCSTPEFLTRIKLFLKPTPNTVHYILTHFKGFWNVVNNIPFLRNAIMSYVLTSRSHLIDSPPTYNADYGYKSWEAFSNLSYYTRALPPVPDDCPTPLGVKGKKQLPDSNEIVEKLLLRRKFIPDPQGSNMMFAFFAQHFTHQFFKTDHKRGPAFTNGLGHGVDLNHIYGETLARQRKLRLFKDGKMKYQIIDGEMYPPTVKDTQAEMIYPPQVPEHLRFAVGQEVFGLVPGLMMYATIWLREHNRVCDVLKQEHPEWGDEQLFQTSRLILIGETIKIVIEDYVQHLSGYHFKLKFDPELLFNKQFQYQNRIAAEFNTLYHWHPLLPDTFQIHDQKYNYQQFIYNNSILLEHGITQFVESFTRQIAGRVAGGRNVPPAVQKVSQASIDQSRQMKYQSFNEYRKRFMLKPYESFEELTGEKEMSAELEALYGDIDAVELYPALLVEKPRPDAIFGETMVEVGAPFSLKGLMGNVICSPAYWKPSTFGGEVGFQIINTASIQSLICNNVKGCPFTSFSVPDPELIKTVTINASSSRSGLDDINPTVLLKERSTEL

[8] = colorimetric COX (ovine) kit, read-out: IC50 value COX-1, this assay

## Octyl fenbufen amide [OFA]
NO
  Anti inflammatory effect: marginal

## C=C(CC)C(=O)c1ccc(OCC(=O)NCCCC[18F])c(Cl)c1Cl [[^18F]FBuEA, [^18F]-N-(4-fluorobutyl)ethacrynic amide]
Rat liver tumor lesion
  Image of tumor lesion: only shows the image of cold spot

## CCCCCCCCNC(=O)CCC(=O)c1ccc(-c2ccc(I)cc2)cc1 [compound of formula 2, 4-(4′-iodobiphenyl-4-yl)-n-octyl-4-oxobutanamide]
COX-1 [1]; [8]
  IC50: > 10 µM
COX-2 [2]
  IC50: > 10 µM
COX-1 [3]
  Binding yield (bound conjugate, accumulated radioactivity fraction) with COX-1: 56%
COX-2 [4]
  Binding yield (bound conjugate, accumulated radioactivity fraction) with COX-2: 76%
other
  melting point: 181 to 182 °C

## CCCCCCCCNC(=O)CCC(=O)c1ccc(-c2ccc([123I])cc2)cc1 [compound of formula 1, 4-(4′-[^123I]iodobiphenyl-4-yl)-N-octyl-4-oxobutanamide]
[5]; CCA tumor rat, 0.76 mCi/1 mL
  In-vivo distribution of radioactivity, SPECT: a heterogeneous radioactivity accumulation was addressed in the liver
[5]; normal rat, 1.39 mCi/1 mL, 30 mins post administration
  In-vivo distribution of radioactivity, SPECT: a homogeneous pattern, which was localized mainly in the liver and partly in the heart
COX-1 [3]
  Binding yield (bound conjugate, accumulated radioactivity fraction) with COX-1: 56%
COX-1 [3]; peak at 13.6 min
  Intact (unbound) form remained, COX-1 binding experiment: 44%
COX-2 [4]
  Binding yield (bound conjugate, accumulated radioactivity fraction) with COX-2: 79%
COX-2 [4]; peak at 13.6 min
  Intact (unbound) form remained, COX-2 binding experiment: 21%

## O=C(O)CCC(=O)c1ccc(-c2ccccc2)cc1 [fenbufen]
COX-1 [1]; [8]
  IC50: > 10 µM
COX-2 [2]
  IC50: > 10 µM
COX-1 [6]
  IC50: 3.9 µM
COX-2 [7]
  IC50: 8.1 µM

## Oc1ccc(C=Cc2cc(O)cc(O)c2)cc1 [Resveratrol]
COX-1 [1]
  IC50: 3.9 µM

## O=c1ccn([C@@H]2O[C@H](CO)[C@@H](O)[C@H]2O)c(=O)[nH]1 [uridine]
COX-1 [1]; [8]
  IC50: > 10 µM
COX-2 [2]
  IC50: > 10 µM
